According to US20190008864A1, “PHARMACEUTICAL COMPOSITION CONTAINING GPR119 LIGAND AS EFFECTIVE INGREDIENT FOR PREVENTING OR TREATING NON-ALCOHOLIC STEATOHEPATITIS” (PHARMEDIX.CO., LTD., priority 2014, published 2019):

Columns and labels:
FAS = FAS expression under high-glucose/high-insulin exposure, HepG2 (western blot); format: cell-based, human
Procedure: (§1) A 6-well plate was inoculated with HepG2 (ATCC, US), as a human hepatocyte line, and cultured until confluence in a DMEM medium containing 1% penicillin-streptomycin (Hyclone, US) and 10% fetal bovine serum (Hyclone, US) in a 5% CO2 incubator at 37° C. The medium containing 10% fetal bovine serum of the hepatocyte line grown to confluence was replaced by a medium not containing FBS. The cell line was additionally cultured for 18 hours and used as a sample for an experiment.
(§2) Sodium dodecyl sulfate-polyacrylamide gel electrophoresis (SDS-PAGE) was carried out by means of a gel electrophoresis device (Mighty Small SE 250, Hoefer Scientific Instruments, San Francisco) according to a method by Laemmli (UK, Nature 227, 680-685, 1970). […] Whether total protein contents in samples are the same is determined using anti-β-actin and anti-LaminA/C antibodies. Changes in protein expression amounts were determined by measuring the intensities of chemiluminescence signals on the blot by means of densitometry. […] Each lane was calculated using AlphaEase™ version 5.5 software and background intensity was removed from the calculated values. […]

SREBP-1c [1] = experiment: SREBP-1c expression under high-glucose/high-insulin exposure, HepG2 (western blot); format: cell-based, human; conditions: 30 mM glucose, 200 nM insulin 24 hours, 1-3 μM ligand
Procedure: as §1, §2

TNF-alpha mRNA = TNF-alpha mRNA after LPS stimulation in RAW264.7 cells (real time PCR); format: cell-based, mouse; conditions: RAW264.7, 3 μM, 10 ng/ml LPS, 6 hours
Procedure: (§3) RAW264.7 cells cultured in 6-well plates were stabilized for 12 hours in a serum-free medium, and then exposed to 3 μM of MBX-2982 and 10 ng/ml of LPS. After 6 hours, RNA samples extracted with TRIZOL were reversely transcribed using a cDNA synthesis PCR kit to synthesize cDNAs. The cDNAs obtained through reverse transcription were used as a template, and primers for 5′ and 3′ flanking sequences of cDNAs to be amplified were as follows. Real time PCR (Mini-Opticon, Bio-Rad, US) was carried out and the expression levels of mRNA were investigated.
(§4) Inflammatory marker change results evaluated after LPS stimulation for RAW264.7 cells, which were derived from a mouse macrophage cell line, are illustrated in FIG. 18.

iNOS protein = iNOS protein expression after LPS stimulation in RAW264.7 cells (western blot); format: cell-based, mouse; conditions: RAW264.7, 3 μM, 10 ng/ml LPS, 6 hours
Procedure: RAW264.7 cells cultured in 6-well plates were stabilized for 12 hours in a serum-free medium, and then exposed to 3 μM of MBX-2982 and 10 ng/ml of LPS. After 6 hours, the cells were lysed in cytolysis buffer and voltexed. Centrifugation was conducted at 14,000 rpm and 4° C. for 20 minutes. A supernatant of the centrifuged solution was collected and then subjected to protein quantification by the Bradford assay. 15 μg of a protein thereof was electrophoresed on an SDS polyacrylamide gel, and then expression changes of iNOS and COX-2 proteins were measured by western blotting. Expression changes in triplicate experiments were measured with a densitometer and are shown as graphs.
As described above, RAW264.7 cells, which were derived from a mouse macrophage cell line, was subjected to LPS stimulation, and then inflammatory marker changes therein were evaluated. Results are illustrated in FIG. 17.

SREBP-1c [2] = experiment: SREBP-1c expression under high-glucose/high-insulin exposure, primary hepatocytes (western blot); format: cell-based, mouse; conditions: 0.3-10 μM ligand
Procedure: Liver cells were collected from male C57BL/6 mice (Central Lab. Animal Inc., Seoul) according to a method by Seglen et al. (Exp Cell Res., 82, pp 391-398, 1973). Each C57BL/6 mouse was anesthetized and then the abdomen thereof was incised. Subsequently, the hepatic portal vein was intubated and a gas mixture of 5% CO2 and 95% O2 was insufflated thereinto. A Ca^2+ and Mg^2+-free Hank's balanced salt solution at 37° C. was flowed into the tube to remove blood in the liver. Subsequently, a 0.1% collagenase type IV (Sigma, US) solution was flowed thereinto. The liver tissue was removed from the body, and then prepared into a hepatocyte suspension. The prepared hepatocyte suspension was centrifuged at 50×g for two minutes. […]
as §2

MCP-1 mRNA = MCP-1 mRNA after LPS stimulation in RAW264.7 cells (real time PCR); format: cell-based, mouse; conditions: RAW264.7, 3 μM, 10 ng/ml LPS, 6 hours
Procedure: as §3, §4

## CCc1cnc(N2CCC(c3nc(COc4ccc(-n5cnnn5)cc4)cs3)CC2)nc1 [MBX2982, 4-((4-(1H-tetrazol-1-yl)phenoxy)methyl)-2-(1-(5-ethylpyrimidin-2-yl)piperidin-4-yl)thiazole]
FAS
  FAS expression increased by high-glucose/high-insulin: inhibited
SREBP-1c [1]
  SREBP-1c and nuclear (active-type) SREBP-1C expression increased by high-glucose/high-insulin: completely inhibited
TNF-alpha mRNA
  expression of TNF-alpha mRNA: decreased
iNOS protein
  expression of iNOS protein: decreased
SREBP-1c [2]
  SREBP-1c and nuclear (active-type) SREBP-1C expression increased by high-glucose/high-insulin: completely inhibited
MCP-1 mRNA
  expression of MCP-1 mRNA: decreased
